The values below come from ChEMBL document CHEMBL1201862, “PubChem BioAssay data set” (2004).

Each structure is given as a SMILES string.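 Where inhibition never reached the appropriate level, the endpoint shown equals the highest concentration tested. Otherwise, values were interpolated linearly from a five-concentration, 48-hour dose response in 96-well plates. GI50 is the concentration that inhibits growth by half.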 Calls of active or inactive are those of the source. Rule as the data show it: active = GI50 up to about 1.1 µM and inactive = higher. Bounds are passed on as bounds.

Assay in all cases: NCI tumour cell line growth inhibition, 48 h
Test [1] relates to NCI-H460.
Test [2] concerns OVCAR-8.
Test [3] deals with OVCAR-3.
In test [4] the test system is SNB-75.
In test [5] the test system is SK-OV-3.
For test [6], the system named is SW-620.
The subject of test [7] is UACC-257.
The test system of test [8] is M14.
The subject of test [9] is BT-549.
In test [10] the test system is HCT-116.
In test [11] the test system is MDA-N.
Test [12] deals with HCT-15.
Test [13] has as its system MDA-MB-435.
The test system of test [14] is A498.
Test [15] deals with IGROV-1.
Test [16] concerns UO-31.
Test [17] has as its system OVCAR-5.
In test [18] the test system is HOP-92.
The test system of test [19] is CCRF-CEM.
The subject of test [20] is DLD-1.

As to `Cc1cc2c(cc1C)[n+]([O-])c(C(F)(F)F)c(C(=O)c1ccccc1)[n+]2[O-]`, the GI50 in test [1] was 1.26 µM (inactive); in test [2], 2.93 µM (inactive); in test [3], 0.227 µM (active); in [4] it was 3.32 µM (inactive); in [5], 4 µM (inactive); in test [6], 3.72 µM (inactive). The GI50 in [7] is 3.02 µM (inactive); in [8], 3.73 µM (inactive); in test [9] it was 5.35 µM (inactive); in test [10] it was 2.24 µM (inactive); in test [11] it was 3.35 µM (inactive); in test [12] it was 3.24 µM. In addition, the GI50 in test [13] is 2.69 µM (inactive); in [14], 4.44 µM (inactive); in [15], 1.37 µM (inactive); in [16], 0.484 µM (active); in [17] it was 3.08 µM (inactive); in [18], 0.167 µM (active). Besides, the GI50 in [19] was 2.02 µM (inactive).
Turning to `[N-]=[N+]=CC(=O)C1CCCN1C(=O)c1ccccc1` (centres undefined), the GI50 in [1] was > 10 µM (inactive); in test [2], > 10 µM (inactive); in test [3] it was > 10 µM (inactive); in [4] it was 0.585 µM (active); in [5], > 10 µM (inactive); in test [6], > 10 µM (inactive). Also, the GI50 in test [7] was > 10 µM (inactive); in [8] it was > 10 µM (inactive); in test [9] it was > 10 µM (inactive); in [10], > 10 µM (inactive); in test [11], > 10 µM (inactive); in test [12] it was above 10 µM. In addition, the GI50 in test [13], in test [14], in test [15], in test [16], in test [17] and in [18] was > 10 µM (inactive) in each case. Moreover, the GI50 in test [19] was > 10 µM (inactive).
As to `COc1ccc(C(OCC2OC(n3ccc(Oc4c(F)c(F)c(F)c(F)c4F)nc3=O)CC2OP(OCCC#N)N(C(C)C)C(C)C)(c2ccccc2)c2ccc(OC)cc2)cc1` (centres undefined), the GI50 in [1], in test [2], in test [3], in test [4], in [5] and in test [6] was > 100 µM (inactive) throughout. Moreover, the GI50 in test [7] was > 100 µM (inactive); in test [8], > 100 µM (inactive); in test [9], > 100 µM (inactive); in test [10] it was > 100 µM (inactive); in test [11] it was > 100 µM (inactive); in test [12] it was above 100 µM. In addition, the GI50 in test [13], in test [14], in test [15], in [16], in [17] and in test [18] was > 100 µM (inactive) throughout. Moreover, in test [19], the GI50 is 77.3 µM (inactive).
As to `C=C(C)C(=O)OC1CC2(C)OC2CC(OC(C)=O)/C(C)=C/C2OC(=O)C(=C)C21` (centres undefined), the GI50 in test [1] is 1.73 µM (inactive); in [2], 2.03 µM (inactive); in [3] it was 2.26 µM (inactive); in test [4], 15.5 µM (inactive); in test [5] it was 29 µM (inactive); in test [6], 0.426 µM (active). In addition, the GI50 in test [7] was 6.5 µM (inactive); in test [8], 3.01 µM (inactive); in test [9] it was 1.09 µM (active); in test [10], 1.7 µM (inactive); in [11], 2.73 µM (inactive); in [12] it was 0.566 µM. Moreover, the GI50 is 1.18 µM (inactive) in test [13]; 12.9 µM (inactive) in test [14]; 4.17 µM (inactive) in test [15]; 2.68 µM (inactive) in test [16]; 5.83 µM (inactive) in test [17]; 3.64 µM (inactive) in [18]. Also, the GI50 in test [19] is 0.0895 µM (active).
`C=C(Cl)[C@@](Cl)(CBr)CC[C@@H](Br)C(C)(C)Cl`: the GI50 is 0.108 µM (active) in [1]; 0.466 µM (active) in test [2]; 0.506 µM (active) in [3]; 0.24 µM (active) in test [4]; 9.16 µM (inactive) in test [5]; 0.321 µM (active) in test [6]. Also, the GI50 was 0.557 µM (active) in test [7]; 10.8 µM (inactive) in test [8]; 3.66 µM (inactive) in test [9]; 0.25 µM (active) in test [10]; 0.255 µM (active) in test [11]; 0.759 µM in test [12]. The GI50 in [13] was 1.4 µM (inactive); in test [14], 0.938 µM (active); in [15], 11.7 µM (inactive); in test [16], 0.834 µM (active); in test [17], 1.59 µM (inactive); in test [18], 0.292 µM (active). Also, the GI50 in test [19] was 15.8 µM (inactive).
Turning to `NC(=O)N/N=C/C(=C/Nc1ccccc1)[N+](=O)[O-]`, the GI50 in test [1] is 89.1 µM (inactive); in test [2], > 100 µM (inactive); in [3] it was > 100 µM (inactive); in test [5] it was > 100 µM (inactive); in test [6] it was > 100 µM (inactive); in test [7] it was > 100 µM (inactive). For the same molecule, the GI50 in [8] is > 100 µM (inactive); in test [10] it was > 100 µM (inactive); in test [12], above 100 µM; in test [20], > 100 µM (inactive); in test [15] it was > 100 µM (inactive); in [16], > 100 µM (inactive). Further, the GI50 in [18] is 79.3 µM (inactive); in test [19] it was > 100 µM (inactive).
For the molecule `CC/C=C\C/C=C\C/C=C\CCCCCCCC(=O)OC(COC(=O)CCCCCCCCCCCCCCCCC)COC1OC(CO)C(O)C(O)C1O` (centres undefined), the GI50 in test [1] was > 25 µM (inactive); in test [2], 15.9 µM (inactive); in test [3] it was 7.74 µM (inactive); in test [4] it was > 25 µM (inactive); in test [5], > 25 µM (inactive); in [6], > 25 µM (inactive). Further, the GI50 in test [7] is > 25 µM (inactive); in [8], > 25 µM (inactive); in test [9], > 25 µM (inactive); in [10] it was > 25 µM (inactive); in test [11] it was > 25 µM (inactive); in [12] it was above 25 µM. The GI50 was > 25 µM (inactive) in [13]; > 25 µM (inactive) in test [14]; 12.3 µM (inactive) in test [15]; > 25 µM (inactive) in test [16]; > 25 µM (inactive) in test [17]; > 25 µM (inactive) in test [18]. The GI50 in test [19] was > 25 µM (inactive).
As to `CCN(CC)c1ccc(/C=C(\C#N)c2nc(N)nc(N3N=C(C)CC3(C)C)n2)cc1`, the GI50 in [1] was 18.3 µM (inactive); in [2], 10.6 µM (inactive); in test [3] it was 17.5 µM (inactive); in test [4], 10 µM (inactive); in [5] it was 6.61 µM (inactive); in [6], 55.6 µM (inactive). The GI50 in test [7] was 45.2 µM (inactive); in test [8] it was 19.2 µM (inactive); in test [9] it was 47.4 µM (inactive); in test [10], 15.9 µM (inactive); in test [11], 24.1 µM (inactive); in test [12], above 59.3 µM. Also, the GI50 is 21.1 µM (inactive) in test [13]; 16.2 µM (inactive) in [14]; 7.82 µM (inactive) in test [15]; 22.4 µM (inactive) in [16]; 26.7 µM (inactive) in [17]; 6.97 µM (inactive) in [18]. Also, the GI50 in test [19] is 19.1 µM (inactive).
Take `CC1(C)CC[C@]2(C(=O)O)CC[C@]3(C)C(=CC[C@@H]4[C@@]5(C)CC[C@H](OC6OC(CO)C(O)C(O)C6OC6OC(CO)C(O)C(O)C6O)C(C)(C)[C@@H]5CC[C@]43C)[C@@H]2C1` (some centres undefined): the GI50 in [1] is 21 µM (inactive); in [2] it was 19.4 µM (inactive); in [3], 15.7 µM (inactive); in [4], 21.6 µM (inactive); in [5], 17.8 µM (inactive); in test [6], 22.5 µM (inactive). In addition, the GI50 was 20.1 µM (inactive) in [7]; 16.2 µM (inactive) in [8]; 19.5 µM (inactive) in [9]; 17.1 µM (inactive) in test [10]; 19.6 µM (inactive) in [11]; 18 µM in [12]. The GI50 in test [13] was 20 µM (inactive); in test [14] it was 18.5 µM (inactive); in [15], 18.9 µM (inactive); in test [16] it was 20.6 µM (inactive); in test [17], 2.49 µM (inactive); in test [18], 17.6 µM (inactive). Also, the GI50 in test [19] is 21.2 µM (inactive).
As to `CNc1nc2c(C)ccc3nc(N(C)C)nc-3c2n1C`, the GI50 in test [1], in [2], in test [3], in [4], in [5] and in [6] was > 10 µM (inactive) in each case. The GI50 in [7] was > 10 µM (inactive); in [8] it was > 10 µM (inactive); in test [9], > 10 µM (inactive); in [10], > 10 µM (inactive); in [11] it was > 10 µM (inactive); in test [12] it was above 10 µM. In addition, the GI50 in [13], in [14], in test [15], in [16], in test [17] and in test [18] was > 10 µM (inactive) each time. Besides, the GI50 in test [19] is > 10 µM (inactive).
On to `CC(C)=CCc1c2c(c3occ(-c4ccc(O)c(O)c4)c(=O)c3c1O)C=CC(C)(C)O2` [POMIFERIN], for which the GI50 in test [1] is 1.64 µM (inactive); in test [2], 2.81 µM (inactive); in test [3], 1.66 µM (inactive); in test [4] it was 3.61 µM (inactive); in [5], 6.71 µM (inactive); in test [6], 0.714 µM (active). The GI50 in test [7] is 1.91 µM (inactive); in test [8], 1.68 µM (inactive); in test [9] it was 3.46 µM (inactive); in [10] it was 1.85 µM (inactive); in test [11], 1.7 µM (inactive); in test [12], 1.91 µM. The GI50 was 1.75 µM (inactive) in test [13]; 15.3 µM (inactive) in [14]; 2.11 µM (inactive) in test [15]; 1.54 µM (inactive) in test [16]; 7.82 µM (inactive) in test [17]; 2.07 µM (inactive) in test [18]. Besides, the GI50 in test [19] was 0.723 µM (active).
